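Dose response: 5 concentrations. Exposure: 48 h. Format: 96-well plates. Endpoint: linear interpolation; highest concentration if not reached. Here, GI50 denotes the concentration required for 50% inhibition of growth. TGI: total growth inhibition.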

14 compounds from PubChem BioAssay (NCI) can be followed below.

Among the test systems are HCT-116 colon; SN12C renal; M14 melanoma; 786-0 renal; CCRF-CEM leukemia; LOX IMVI melanoma; SK-MEL-2 melanoma; TK-10 renal.
What all share (assay): inhibition of tumour cell growth, NCI panel, 48 h

For `O=c1c2ccccc2oc2ccccc12` (tested in a mixture with another compound), the TGI in the test on HCT-116 colon is greater than 100 µM; in the test with SN12C renal, 60.8 µM; in the test on M14 melanoma, greater than 100 µM; in the test with 786-0 renal, greater than 100 µM; with CCRF-CEM leukemia, greater than 100 µM; with LOX IMVI melanoma it was 17 µM.

In the case of `O=C(O)c1c2c(cc3c(=O)c4ccccc4[nH]c13)CCCC2`, the TGI with HCT-116 colon, with SK-MEL-2 melanoma, in the test on SN12C renal, in the test with TK-10 renal, in the test on 786-0 renal and in the test with CCRF-CEM leukemia was greater than 100 µM each time. In the test on LOX IMVI melanoma, the TGI is greater than 100 µM.

As to `O=c1cc[nH]cc1-c1c[nH]ccc1=O`, the TGI in the test on HCT-116 colon, with SN12C renal, in the test with TK-10 renal, in the test on M14 melanoma, in the test with 786-0 renal and in the test on CCRF-CEM leukemia was greater than 100 µM in each case. Further, the TGI in the test with LOX IMVI melanoma was greater than 100 µM.

For `COC(=O)/C(C#N)=C1\CCC(OC)N1C` (stereo not given), the TGI in the test on HCT-116 colon, with SK-MEL-2 melanoma, in the test on SN12C renal, with TK-10 renal, in the test on M14 melanoma and in the test with 786-0 renal was greater than 100 µM throughout. Besides, the TGI in the test on CCRF-CEM leukemia and with LOX IMVI melanoma was greater than 100 µM throughout.

Turning to `CN1CCN=C1c1nnn(-c2ccc([N+](=O)[O-])cc2)c1-c1ccccc1`, the TGI in the test with HCT-116 colon, in the test on SK-MEL-2 melanoma, in the test on SN12C renal, in the test on TK-10 renal, in the test on M14 melanoma and in the test on 786-0 renal was greater than 100 µM throughout. For the same compound, the results for the TGI with CCRF-CEM leukemia and in the test on LOX IMVI melanoma were 59 µM and greater than 100 µM, respectively.

On to `CS(=O)(=O)c1ccc(COP(N)(=O)N(CCCl)CCCl)cc1` (stereo not given), for which the TGI in the test on HCT-116 colon, with SK-MEL-2 melanoma, with SN12C renal, in the test on TK-10 renal, with M14 melanoma and in the test with 786-0 renal was greater than 100 µM each time. The TGI in the test with CCRF-CEM leukemia and in the test with LOX IMVI melanoma was greater than 100 µM in each case.

`O=[N+]([O-])c1cc(/C=N\NS(=O)(=O)c2ccc(Cl)cc2)c(O)c([N+](=O)[O-])c1`: the TGI was greater than 100 µM in the test with HCT-116 colon; greater than 100 µM in the test on SK-MEL-2 melanoma; 87.4 µM in the test with SN12C renal; greater than 100 µM in the test with TK-10 renal; 99.6 µM with M14 melanoma; greater than 100 µM in the test with 786-0 renal. The TGI in the test on CCRF-CEM leukemia is 78.5 µM; in the test on LOX IMVI melanoma, greater than 100 µM.

In the case of `COc1cc2c(cc1OC)C(C(CBr)CBr)N(C1CCCC1)CC2` (stereo not given), the TGI in the test on SK-MEL-2 melanoma, with TK-10 renal, with M14 melanoma, in the test with 786-0 renal, with CCRF-CEM leukemia and with LOX IMVI melanoma was greater than 100 µM each time.

In the case of `CC(C)N(C(=O)C12C3C4C5(C(=O)O)C(C1C35I)C42C(=O)O)C(C)C` (stereo not given), the TGI with HCT-116 colon, with SN12C renal, in the test on TK-10 renal, in the test on M14 melanoma, with 786-0 renal and in the test with CCRF-CEM leukemia was greater than 100 µM throughout.

Consider `COc1ccc(Br)c(CN2CCc3ccccc32)c1OS(=O)(=O)c1ccc(C)cc1`, for which the TGI in the test on SK-MEL-2 melanoma, in the test on SN12C renal, with M14 melanoma, in the test with 786-0 renal and in the test with CCRF-CEM leukemia was greater than 100 µM throughout.

As to `CN1CCC(c2c(O)cc(O)c3c(=O)cc(-c4ccccc4Cl)oc23)C(O)C1` (stereo not given), the TGI in the test on SN12C renal was greater than 100 µM; in the test with TK-10 renal, greater than 100 µM; with M14 melanoma, 0.236 µM; with 786-0 renal it was greater than 100 µM; with CCRF-CEM leukemia, 19.3 µM.

Consider `CCCCCCCC(=O)[O-].CCCCCCCC(=O)[O-].N.N.N.N.[Co+3].[O-][Cl+3]([O-])([O-])[O-]`, for which the GI50 in the test with SK-MEL-2 melanoma is greater than 100 µM; with SN12C renal, greater than 100 µM; in the test with TK-10 renal, 57.1 µM; in the test with M14 melanoma, greater than 100 µM; in the test with 786-0 renal, greater than 100 µM; in the test with CCRF-CEM leukemia, greater than 100 µM. The TGI with SK-MEL-2 melanoma, in the test on SN12C renal, in the test on TK-10 renal, with M14 melanoma, in the test with 786-0 renal and with CCRF-CEM leukemia was greater than 100 µM throughout.

Consider `COc1ccc(NC(=O)CC(=O)N/N=C(\C)c2cc3ccccc3oc2=O)cc1`, for which the TGI with HCT-116 colon, with SN12C renal, with TK-10 renal, in the test on M14 melanoma, in the test with 786-0 renal and in the test with CCRF-CEM leukemia was greater than 100 µM in each case. Further, the TGI in the test on LOX IMVI melanoma was greater than 100 µM.

Consider `CCOC(=O)[C@@]12C(C)=CC(=O)O[C@]1(C)C1C(=O)NC(=O)C12` (stereo not given in full), for which the TGI in the test with HCT-116 colon, in the test on SK-MEL-2 melanoma, in the test with TK-10 renal, in the test on M14 melanoma, with 786-0 renal and in the test with CCRF-CEM leukemia was greater than 100 µM in each case. This compound also gave a TGI in the test on LOX IMVI melanoma greater than 100 µM.
